In brackets after ≈: the same amount, converted by molar mass.
Legend:
Bacteroides sp. = experiment: Antibacterial activity against Bacteroides sp.; format: functional
[1] = Inhibition of Enterobacteriaceae PBP2 by Bocillin FL-based fluorescence assay
Enterobacteriaceae [2] = experiment: Inhibition of ESBL in Enterobacteriaceae assessed as potentiation of piperacillin-induced antibacterial activity by measuring piperacillin MIC at 2 ug/ml by agar dilution method
Enterobacteriaceae [3] = experiment: Inhibition of ESBL in Enterobacteriaceae assessed as potentiation of cefepime-induced antibacterial activity by measuring cefepime MIC at 2 ug/ml by agar dilution method
Enterobacteriaceae [4] = experiment: Inhibition of ESBL in Enterobacteriaceae assessed as potentiation of aztreonam-induced antibacterial activity by measuring aztreonam MIC at 2 ug/ml by agar dilution method
Enterobacteriaceae [5] = experiment: Inhibition of KPC in Enterobacteriaceae assessed as potentiation of piperacillin-induced antibacterial activity by measuring piperacillin MIC at 2 ug/ml by agar dilution method
Enterobacteriaceae [6] = experiment: Inhibition of KPC in Enterobacteriaceae assessed as potentiation of cefepime-induced antibacterial activity by measuring cefepime MIC at 2 ug/ml by agar dilution method
Enterobacteriaceae [7] = experiment: Inhibition of KPC in Enterobacteriaceae assessed as potentiation of aztreonam-induced antibacterial activity by measuring aztreonam MIC at 2 ug/ml by agar dilution method
Enterobacteriaceae [8] = experiment: Inhibition of OXA in Enterobacteriaceae assessed as potentiation of piperacillin-induced antibacterial activity by measuring piperacillin MIC at 2 ug/ml by agar dilution method
Enterobacteriaceae [9] = experiment: Inhibition of OXA in Enterobacteriaceae assessed as potentiation of cefepime-induced antibacterial activity by measuring cefepime MIC at 2 ug/ml by agar dilution method
Enterobacteriaceae [10] = experiment: Inhibition of OXA in Enterobacteriaceae assessed as potentiation of aztreonam-induced antibacterial activity by measuring aztreonam MIC at 2 ug/ml by agar dilution method
Enterobacteriaceae [11] = experiment: Inhibition of KPC in Enterobacteriaceae assessed as potentiation of meropenem-induced antibacterial activity by measuring meropenem MIC at 2 ug/ml by agar dilution method (reference value: 8.43 ug/ml)
Enterobacteriaceae [12] = experiment: Inhibition of MBL in Enterobacteriaceae assessed as potentiation of aztreonam-induced antibacterial activity by measuring aztreonam MIC at 2 ug/ml by agar dilution method (reference value: 4.68 ug/ml)

SMILES | MIC90 (Bacteroides sp.) [µg/mL] | IC50 [1] [µg/mL] | MIC (Enterobacteriaceae [2]) [µg/mL] | MIC (Enterobacteriaceae [3]) [µg/mL] | MIC (Enterobacteriaceae [4]) [µg/mL] | MIC (Enterobacteriaceae [5]) [µg/mL] | MIC (Enterobacteriaceae [6]) [µg/mL] | MIC (Enterobacteriaceae [7]) [µg/mL] | MIC (Enterobacteriaceae [8]) [µg/mL] | MIC (Enterobacteriaceae [9]) [µg/mL] | MIC (Enterobacteriaceae [10]) [µg/mL] | MIC (Enterobacteriaceae [11]) [µg/mL] | MIC (Enterobacteriaceae [12]) [µg/mL]
C[C@@H](O)[C@H]1C(=O)N2C(C(=O)O)=C(SCCNC=N)C[C@H]12 [IMIPENEM ANHYDROUS] | ≤ 1 |  |  |  |  |  |  |  |  |  |  |  | 
NCCONC(=O)[C@@H]1CC[C@@H]2CN1C(=O)N2OS(=O)(=O)O [NACUBACTAM] |  | 0.12 (≈ 0.37 µM) | < 1 | < 1 | < 1 | < 1 | < 1 | < 1 | < 1 | < 1 | < 1 | < 1 | 0.072

Source: ChEMBL document CHEMBL4325823 (Medchemcomm, 2018)
